Active and inactive are the calls of the source. The rule behind the calls is not given here.
Legend:
[1] = molecular target: T1, Thyroid hormone receptor alpha (Homo sapiens, UniProt P10827); test: Agonist activity at TRalpha (unknown origin) by Lanthascreen TR-FRET assay
T1 sequence (P10827 whole entry): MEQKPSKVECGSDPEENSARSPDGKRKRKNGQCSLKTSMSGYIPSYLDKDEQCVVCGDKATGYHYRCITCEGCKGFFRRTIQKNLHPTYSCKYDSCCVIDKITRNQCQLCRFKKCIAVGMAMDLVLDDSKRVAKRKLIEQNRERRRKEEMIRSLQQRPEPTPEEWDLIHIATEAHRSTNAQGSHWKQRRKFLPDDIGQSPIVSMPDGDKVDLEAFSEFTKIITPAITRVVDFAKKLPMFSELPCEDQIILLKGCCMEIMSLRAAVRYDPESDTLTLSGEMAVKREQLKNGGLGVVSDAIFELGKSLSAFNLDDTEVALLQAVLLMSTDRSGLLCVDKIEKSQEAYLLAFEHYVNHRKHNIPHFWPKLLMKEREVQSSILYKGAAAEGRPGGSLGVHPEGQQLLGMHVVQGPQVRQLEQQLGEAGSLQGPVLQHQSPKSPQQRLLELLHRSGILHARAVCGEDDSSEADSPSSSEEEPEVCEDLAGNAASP

[2] = molecular target: T2, Thyroid hormone receptor beta (Homo sapiens, UniProt P10828); test: Agonist activity at TRbeta (unknown origin) by Lanthascreen TR-FRET assay
T2 sequence (P10828 whole entry): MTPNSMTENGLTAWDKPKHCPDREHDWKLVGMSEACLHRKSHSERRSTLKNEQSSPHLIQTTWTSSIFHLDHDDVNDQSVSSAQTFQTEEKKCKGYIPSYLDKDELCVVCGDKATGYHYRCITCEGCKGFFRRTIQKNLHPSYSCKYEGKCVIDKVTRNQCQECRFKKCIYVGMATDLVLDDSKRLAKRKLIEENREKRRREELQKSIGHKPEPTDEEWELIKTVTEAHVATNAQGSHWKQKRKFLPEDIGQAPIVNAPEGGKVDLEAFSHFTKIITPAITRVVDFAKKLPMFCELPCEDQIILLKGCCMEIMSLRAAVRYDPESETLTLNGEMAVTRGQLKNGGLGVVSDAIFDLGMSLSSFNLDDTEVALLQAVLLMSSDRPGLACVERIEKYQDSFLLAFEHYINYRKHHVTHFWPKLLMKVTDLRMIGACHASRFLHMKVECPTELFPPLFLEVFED

HepG2 = test: Induction of lipolysis in human HepG2 cells assessed as reduction in intracellular lipid accumulation at 1 to 10 uM incubated for 24 hrs by Oil Red O staining based spectrophotometric analysis; type: functional, cell-based; settings: dose 1-10 µM
[3] = Toxicity in F344 rat assessed as increase in heart weight at 50 to 100 ug per 100 g body weight, ig administered daily for 3 days; settings: in vivo, po, 72 h, dose 50-100 µg, time 3 day
[4] = Toxicity in F344 rat assessed as effect on serum AST/GOT level at 75 ug per 100 g of body weight, ig administered daily for 3 days (reference value: 153 +/- 11 U/L); settings: in vivo, po, 72 h, dose 75 µg, time 3 day
[5] = Toxicity in F344 rat assessed as effect on serum ALT/GPT level at 50 ug per 100 g body weight, ig administered daily for 3 days (reference value: 46 +/- 4 U/L); settings: in vivo, po, 72 h, dose 50 µg, time 3 day
[6] = Toxicity in F344 rat assessed as effect on serum glucose level at 50 ug per 100 g body weight, ig administered daily for 3 days (reference value: 151 +/- 13.5 mg/dl); settings: in vivo, po, 72 h, dose 50 µg, time 3 day
[7] = Toxicity in F344 rat assessed as effect on serum triglycerides level at 50 ug per 100 g body weight, ig administered daily for 3 days (reference value: 86.8 +/- 10.4 mg/dl); settings: in vivo, po, 72 h, dose 50 µg, time 3 day
[8] = molecular target: T3, TRalpha (thyroid hormone receptor alpha) (Homo sapiens, UniProt P10827); test: Agonist activity at TRalpha (unknown origin) at 1 uM by Lanthascreen TR-FRET assay relative to control; settings: read-out: Activity
T3 sequence (P10827 whole entry): T1 sequence (P10827 whole entry)

Row | Structure (SMILES) | EC50 [1] | EC50 [2] | Activity (HepG2) | Activity [3] | Activity [4] | Activity [5] | Activity [6] | Activity [7] | activity at 1 µM [8]
1 | Cc1cc(OCC(=O)O)cc(C)c1Cc1ccc(O)cc1 | 54 nM | 32 nM | – | – | – | – | – | – | –
2 | CC(=O)Nc1ccc(Cc2c(C)cc(OCC(=O)O)cc2C)cc1C(C)C | – | – | Active | Non-Toxic | 133 U/L | 46 U/L | 129 mg/dL | 70.4 mg/dL | –
3 | Cc1cc(OCC(=O)O)cc(C)c1Cc1ccc(N)c(C(C)C)c1 | – | – | Active | Non-Toxic | 119 U/L | 41 U/L | 136 mg/dL | 68.3 mg/dL | 30%

Source: ChEMBL document CHEMBL4680157, “Design, synthesis and biological evaluation of novel TRβ selective agonists sustained by ADME-toxicity analysis” (Eur J Med Chem, 2020)
